In paper PMC5573830 (The Journal of Veterinary Medical Science, 2017):

Biological target: rTgAPN2 (recombinant aminopeptidase N2, TgAPN2) (Toxoplasma gondii, UniProt A0A7J6K0L4)
Experiment: residual H-Ala-MCA hydrolysis, fluorescence
Format: biochemical
Settings: 30 min pre-incubation at 37 °C, substrate H-Ala-MCA

CC(C)C[C@H](NC(=O)[C@@H](O)[C@H](N)Cc1ccccc1)C(=O)O [bestatin]
residual enzyme activity (%): The activity of rTgAPN2 was reduced in a dose-dependent manner in the presence of bestatin or amastatin
